In patent publication US11773088B2, “KCNT1 inhibitors and methods of use” (Praxis Precision Medicines, Inc., priority 2020, dated 2023) one finds IC50 data, which are given here for 8 compounds.

In this test the target is T1, KCNT1 (KNa1.1, Slack) (Homo sapiens, UniProt Q5JUK3).
T1 construct: expressed in transfected cells; host or cells: HEK-TREX (tetracycline-inducible HEK cell line)
T1 sequence (Q5JUK3 1-1230): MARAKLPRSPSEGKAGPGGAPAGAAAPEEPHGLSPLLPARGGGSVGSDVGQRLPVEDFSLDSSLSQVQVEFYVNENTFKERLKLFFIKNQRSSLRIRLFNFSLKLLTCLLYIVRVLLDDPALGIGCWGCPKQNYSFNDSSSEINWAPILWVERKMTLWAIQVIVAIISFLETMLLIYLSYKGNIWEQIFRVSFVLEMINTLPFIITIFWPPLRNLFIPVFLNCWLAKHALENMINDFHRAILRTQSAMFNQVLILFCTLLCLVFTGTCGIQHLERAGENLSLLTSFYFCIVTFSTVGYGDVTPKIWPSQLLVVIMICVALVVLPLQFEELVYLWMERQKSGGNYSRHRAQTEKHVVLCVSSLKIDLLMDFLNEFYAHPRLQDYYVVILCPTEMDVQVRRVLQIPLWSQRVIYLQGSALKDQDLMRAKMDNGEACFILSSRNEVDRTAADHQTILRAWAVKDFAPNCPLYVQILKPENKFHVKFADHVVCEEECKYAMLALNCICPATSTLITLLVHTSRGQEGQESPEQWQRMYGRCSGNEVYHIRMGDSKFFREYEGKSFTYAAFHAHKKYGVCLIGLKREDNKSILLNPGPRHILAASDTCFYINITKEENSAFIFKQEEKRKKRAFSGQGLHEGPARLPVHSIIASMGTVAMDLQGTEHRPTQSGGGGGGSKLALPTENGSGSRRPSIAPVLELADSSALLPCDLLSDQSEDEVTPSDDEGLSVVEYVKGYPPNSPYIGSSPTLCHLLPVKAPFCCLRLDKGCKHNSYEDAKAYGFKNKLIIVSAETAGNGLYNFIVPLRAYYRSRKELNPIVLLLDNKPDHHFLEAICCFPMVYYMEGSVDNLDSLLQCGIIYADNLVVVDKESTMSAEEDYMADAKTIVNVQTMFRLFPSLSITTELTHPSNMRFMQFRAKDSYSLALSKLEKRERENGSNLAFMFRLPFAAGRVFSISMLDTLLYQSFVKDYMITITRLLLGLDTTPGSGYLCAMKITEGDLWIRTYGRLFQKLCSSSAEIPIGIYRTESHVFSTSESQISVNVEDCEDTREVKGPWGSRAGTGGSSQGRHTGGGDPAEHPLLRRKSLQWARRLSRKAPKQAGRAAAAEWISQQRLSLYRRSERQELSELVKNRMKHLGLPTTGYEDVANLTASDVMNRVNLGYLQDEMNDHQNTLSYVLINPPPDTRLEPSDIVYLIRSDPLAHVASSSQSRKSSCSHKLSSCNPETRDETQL
Nature of the test: KCNT1 patch clamp assay (SyncroPatch 384PE, HEK-TREX inducible cell line). The class given is cell-based. The settings on record: wild-type KCNT1, HEK-TREX cells, automated perforated patch clamp, step to 0 mV, room temperature; read-out: KCNT1-WT IC50. The procedure: Inhibition of KCNT1 (KNa1.1, Slack) was evaluated using a tetracycline inducible cell line (HEK-TREX). Currents were recorded using the SyncroPatch 384PE automated, patch clamp system. Pulse generation and data collection were performed with PatchController384 V1.3.0 and DataController384 V1.2.1 (Nanion Technologies). The access resistance and apparent membrane capacitance were estimated using built-in protocols. Current were recorded in perforated patch mode (10 μM escin) from a population of cells. The cells were lifted, triturated, and resuspended at 800,000 cells/ml. The cells were allowed to recover in the cell hotel prior to experimentation. Currents were recorded at room temperature. The external solution contained the following (in mM): NaCl 105, NMDG 40, KCl 4, MgCl2 1, CaCl2) 5 and HEPES 10 (pH=7.4, Osmolarity ˜300 mOsm). The extracellular solution was used as the wash, reference and compound delivery solution. The internal solution contained the following (in mM): NaCl 70, KF 70, KCl 10, EGTA 5, HEPES 5 and Escin 0.01 (pH=7.2, Osmolarity ˜295 mOsm). Escin is made at a 5 mM stock in water, aliquoted, and stored at −20° C. The compound plate was created at 2× concentrated in the extracellular solution. The compound was diluted to 1:2 when added to the recording well. The amount of DMSO in the extracellular solution was held constant at the level used for the highest tested concentration. A holding potential of −80 mV with a 100 ms step to 0 mV was used. Mean current was measured during the step to 0 mV. […] The average mean current from 3 sweeps was calculated and the % inhibition of each compound was calculated. The % Inhibition as a function of the compound concentration was fit with a Hill equation to derive IC50, slope, min and max parameters. If KCNT1 inhibition was less than 50% at the highest tested concentration or if an IC50 could not be calculated, then a percent inhibition was reported in place of the IC50.
In this table, “A” indicates IC50 of less than or equal to 1 μM; “B” indicates inhibition of between 1 μM to 20 μM; and “C” indicates inhibition of greater than or equal to 20 μM.
For orientation: In patch-clamp work, channel activity is measured electrically.
By IC50 is commonly meant the concentration that inhibits the measured activity by half. Consider `CC(C)c1cc(C(=O)N[C@@H](C)c2nc(-c3ccnc(C4CC4)c3)no2)n(C)n1` [Compound 1, (S)—N-(1-(3-(2-cyclopropylpyridin-4-yl)-1,2,4-oxadiazol-5-yl)ethyl)-3-isopropyl-1-methyl-1H-pyrazole-5-carboxamide], for which the IC50 was at most 1 µM. In the case of `CC(C)n1nccc1C(=O)N[C@@H](C)c1nc(-c2ccnc(C3CC3)c2)no1` [Compound 2, (S)—N-(1-(3-(2-cyclopropylpyridin-4-yl)-1,2,4-oxadiazol-5-yl)ethyl)-1-isopropyl-1H-pyrazole-5-carboxamide] it was at most 1 µM; in that of `C[C@H](NC(=O)c1cc(C2CC2)nn1C)c1nc(-c2ccnc(C3CC3)c2)no1` [Compound 3, (S)-3-cyclopropyl-N-(1-(3-(2-cyclopropylpyridin-4-yl)-1,2,4-oxadiazol-5-yl)ethyl)-1-methyl-1H-pyrazole-5-carboxamide], at most 1 µM; in that of `C[C@H](NC(=O)c1cc(C(C)(C)C)nn1C)c1nc(-c2ccnc(C3CC3)c2)no1` [Compound 4, (S)-3-(tert-butyl)-N-(1-(3-(2-cyclopropylpyridin-4-yl)-1,2,4-oxadiazol-5-yl)ethyl)-1-methyl-1H-pyrazole-5-carboxamide], at most 1 µM.

Take `CCn1nccc1C(=O)N[C@@H](C)c1nc(-c2ccnc(C3CC3)c2)no1` [Compound 5, (S)—N-(1-(3-(2-cyclopropylpyridin-4-yl)-1,2,4-oxadiazol-5-yl)ethyl)-1-ethyl-1H-pyrazole-5-carboxamide]: the IC50 was at most 1 µM. As to `C[C@H](NC(=O)c1ccnn1C(C)(C)C)c1nc(-c2ccnc(C3CC3)c2)no1` [Compound 6, (S)-1-(tert-butyl)-N-(1-(3-(2-cyclopropylpyridin-4-yl)-1,2,4-oxadiazol-5-yl)ethyl)-1H-pyrazole-5-carboxamide], the IC50 is at most 1 µM. In the case of `C[C@H](NC(=O)c1ccnn1C1CCC1)c1nc(-c2ccnc(C3CCC3)c2)no1` [Compound 7, (S)-1-cyclobutyl-N-(1-(3-(2-cyclobutylpyridin-4-yl)-1,2,4-oxadiazol-5-yl)ethyl)-1H-pyrazole-5-carboxamide], the IC50 is 1 to 20 µM.

`C[C@H](NC(=O)c1cc(C(F)F)nn1C)c1nc(-c2ccnc(C3CCC3)c2)no1` [Compound 8, (S)—N-(1-(3-(2-cyclobutylpyridin-4-yl)-1,2,4-oxadiazol-5-yl)ethyl)-3-(difluoromethyl)-1-methyl-1H-pyrazole-5-carboxamide]: the IC50 is at most 1 µM.
